# In patent US8747810B2, “Compositions and methods for imaging tissues, organs and tumors” (President and Fellows of Harvard College, priority 2009, dated 2014):
# “And” between values parts separate entries of the source, which are not always exact repeats. Identical values can stand only once.
# Tested on: B16 melanoma nodules
# Assay: In vivo biodistribution and tumor uptake of 99mTc complexes in C57B16 mice with B16 melanoma nodules
# Details: for mel/blood: melanoma/blood ratio; for mel/liver: melanoma/liver ratio; for mel/lung: melanoma/lung ratio; for mel/spleen: melanoma/spleen ratio
# Description: The biodistribution data including melanoma/nontumor (M/NT) ratios for selected organs, summarized in Table 1 as percentage injected dose per gram (% ID/g)
# To study the tumor uptake of radiolabeled metal complexes, in vivo, biodistribution experiments at 1 h after their administration were carried out in C57B16 male mice with palpable B16 melanoma nodules.
smiles,measurement,setting,value
"CCN(CC)CC[N+]12CC[S][99Tc-]13(=[O])[S]CC(=O)[N]3CC2 (stereo not shown) [^99mTc-27, Iso-[^99mTcOAADT]-(CH2)2-NEt2)]",Eyes,1 h postinjection,15.42 ± 2.07 % ID/g
same,blood,1 h postinjection,1.05 ± 0.19 % ID/g
same,brain,1 h postinjection,0.24 ± 0.04 % ID/g
same,heart,1 h postinjection,1.34 ± 0.18 % ID/g
same,kidney,1 h postinjection,5.33 ± 1.10 % ID/g
same,liver,1 h postinjection,12.62 ± 1.80 % ID/g
same,lung,1 h postinjection,6.75 ± 0.57 % ID/g
same,melanoma (tumor uptake),1 h postinjection,9.61 % ID/g and 9.61 ± 1.02 % ID/g
same,muscle,1 h postinjection,0.94 ± 0.14 % ID/g
same,spleen,1 h postinjection,3.00 ± 1.45 % ID/g
same,melanoma (tumor uptake),"1 h postinjection, listed as Iso-[^99mTcOAADT]-(CH2)2-NEt2)",9.61 % ID/g
same,mel/blood,1 h postinjection,14.71 and 14.71 ± 2.40
same,mel/liver,1 h postinjection,0.75 and 0.75 ± 0.11
same,mel/lung,1 h postinjection,1.43 and 1.43 ± 0.15
same,mel/spleen,1 h postinjection,3.65 and 3.65 ± 1.19
same,in vivo tumor uptake,3 h after administration,8.19 %ID/g
same,in vivo tumor uptake,6 h after administration,7.37 %ID/g
same,Eyes,6 h postinjection,11.09 ± 0.84 % ID/g
same,blood,6 h postinjection,0.25 ± 0.02 % ID/g
same,brain,6 h postinjection,0.05 ± 0.01 % ID/g
same,heart,6 h postinjection,0.18 ± 0.02 % ID/g
same,kidney,6 h postinjection,1.11 ± 0.13 % ID/g
same,liver,6 h postinjection,3.69 ± 0.48 % ID/g
same,lung,6 h postinjection,1.39 ± 0.41 % ID/g
same,melanoma (tumor uptake),6 h postinjection,7.05 % ID/g and 7.05 ± 1.23 % ID/g
same,muscle,6 h postinjection,0.07 ± 0.01 % ID/g
same,spleen,6 h postinjection,0.78 ± 0.85 % ID/g
same,mel/blood,6 h postinjection,47.25 and 47.25 ± 7.32
same,mel/liver,6 h postinjection,2.00 and 2.00 ± 0.23
same,mel/lung,6 h postinjection,5.87 and 5.87 ± 1.79
same,mel/spleen,6 h postinjection,13.99 and 13.99 ± 5.17
